The target of the test is Estrogen receptor beta (Mus musculus, UniProt O08537). The test is described as follows: Binding affinity to ERbeta receptor in mouse COS7 cells by competitive binding assay.

A value given as a limit tells only on which side of the number the result lay.

Chain of Estrogen receptor beta (O08537 whole entry): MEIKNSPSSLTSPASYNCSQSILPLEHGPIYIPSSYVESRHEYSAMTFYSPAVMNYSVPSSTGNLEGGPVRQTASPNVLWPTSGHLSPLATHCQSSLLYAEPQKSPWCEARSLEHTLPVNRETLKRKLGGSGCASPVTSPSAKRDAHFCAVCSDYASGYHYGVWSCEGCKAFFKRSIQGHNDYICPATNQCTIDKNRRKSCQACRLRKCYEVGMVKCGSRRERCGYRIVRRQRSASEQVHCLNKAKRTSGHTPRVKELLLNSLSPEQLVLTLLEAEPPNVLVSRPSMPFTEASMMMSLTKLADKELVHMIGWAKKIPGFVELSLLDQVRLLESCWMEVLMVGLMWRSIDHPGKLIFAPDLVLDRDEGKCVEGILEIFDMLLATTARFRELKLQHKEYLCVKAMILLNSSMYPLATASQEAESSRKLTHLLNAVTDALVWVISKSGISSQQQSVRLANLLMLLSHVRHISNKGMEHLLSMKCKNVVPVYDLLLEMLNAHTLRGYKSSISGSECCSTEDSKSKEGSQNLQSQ

As a reminder, the Ki is the equilibrium dissociation constant of an inhibitor or competing ligand from its target. Lower therefore signals higher affinity. For the compound `Brc1cc2c(cc1[C@@H]1Nc3ccccc3[C@@H]3C=CC[C@@H]31)OCO2`, the Ki is above 10 µM.

The values are drawn from BindingDB's records for doi:10.1038/nchembio.168 (University of New Mexico Health Sciences Center, 2009).
